This note sets out measurements from patent US20090048160A1, “Antimicrobial activity of bovine bactericidal/permeability-increasing protein (BPI)-derived peptides against Gram-negative bacterial mastitis isolates” (priority 2007, published 2009).

Ends that are not written are not given here.

Assay [1] has as its system bacterial LPS derived from E. coli 0111:B4. The assay is described as follows: LPS neutralization, Limulus amebocyte lysate (LAL) assay. In kind it is biochemical. The settings on record: 1 ng LPS; for inhibition of LPS activity: 30 min. On the procedure:
FIG. 1 depicts the mean (±S.E.) percent neutralization of bacterial LPS bioactivity as determined with the Limulus amebocyte lysate assay. Increasing concentrations of peptides or polymixin B were incubated with 1 ng of E. coli-derived LPS for 30 min. Following incubation, the amount of free LPS was determined by extrapolation from a standard curve and the percent of bound (neutralized) LPS was calculated.
The ability of the peptides to neutralize LPS was determined using a commercially available Limulus amebocyte lysate (LAL) assay (Cambrex BioScience Walkersville, Inc., Walkersville, Md.). As a positive control, polymyxin B (Sigma Chemical Co.) was evaluated in parallel with the peptides. Increasing concentrations of peptides or polymyxin B were incubated with 1 ng of highly purified bacterial LPS (Sigma Chemical Co.), derived from E. coli 0111:B4, in a 500 μl reaction volume of endotoxin-free water for 30 min at 37° C. while shaking at 100 rpm. Following the incubation, the amount of free LPS was determined in each sample according to the manufacturer's instructions. Briefly, 50 μl of the above mixture was placed into a 96-well microtiter plate and the reaction initiated by the addition of an equal volume of amoebocyte lysate. Following an incubation at 37° C. for 10 min, 100 μl of chromogenic substrate was added and the plate incubated for 5-10 min at 37° C. The reaction was stopped by the addition of 50 μl of glacial acetic acid and the absorbance measured at a wavelength of 405 nm on a microplate reader (Biotec Instruments, Inc., Winooski, Vt.). The amount of non-bound LPS was extrapolated from a standard curve and the percent inhibition calculated according to the following formula: […]
To determine whether the bBPI peptides were able to neutralize LPS, increasing concentrations of the peptides were incubated with LPS (1 ng) and the resulting mixture assayed with the LAL assay (FIG. 1). As a positive and negative control, respectively, polymyxin B and a non-BPI-derived peptide were also assayed. […] In contrast, bBPI142-169 and bBPI90-99,148-161 were able to neutralize ≧93% of LPS activity at peptide concentrations of 30 and 100 μg/ml, respectively.

The test system of another assay is Serratia marcescens. The experiment in a line: microbe, parasite or virus in culture. It counts as cell-based. An excerpt: (§1) Bacterial isolates of Escherichia coli, Klebsiella pneumonia, Serratia marcescens, Pseudomonas aeruginosa, Enterobacter cloacae, and Enterobacter aerogenes, which were obtained from clinical cases of bovine mastitis, were used to assess the bactericidal activity of peptides in a broth microdilution assay. Isolates were obtained from repositories at Cornell University (gift of Dr. Y. H. Schukken; Quality Milk Production Services Program, Cornell University, Ithaca N.Y.) and the USDA Beltsville Agricultural Research Center. […] A. J. Bramley, Institute for Animal Health, Compton Laboratory, Newbury, England), which was originally isolated from a clinical case of mastitis ([…]. Dairy Res. 43: 205-211) was also used to assess the bactericidal activity of the peptides in biological fluids. Reference strains of E. coli (ATCC 25922) and Staphylococcus aureus (ATCC 29213) were obtained from a commercial source (American Type Culture Collection (ATCC), Manassas, Va.). To obtain fresh inoculums for evaluation, a sterile loop of each bacterial glycerol stock was streaked on a blood agar plate. After an overnight incubation at 35° C., a single uniform colony was picked and sub-passaged by streaking on a new blood agar plate and incubating the plate overnight at 35° C. To evaluate the antimicrobial activity of the peptides against various clinical mastitis bacterial isolates, the minimum inhibitory concentration (MIC) and the minimum bactericidal concentration (MBC) of these peptides against the isolates were determined using a standardized broth microdilution assay. In addition to the mastitis isolates, E. coli (ATCC 25922) and S. aureus (ATCC 29213) reference strains were evaluated. […] The assays were performed in accordance with Clinical and Laboratory Standards Institute (CLSI) [formerly National Committee for Clinical Laboratory Standards (NCCLS)] guidelines (National Committee for Clinical Laboratory Standards. 1999. Methods for Determining Bacterial Activity of Antimicrobial Agents: Approved Guideline. Wayne, Pa.; National Committee for Clinical Laboratory Standards. 2002. Performance Standards for Antimicrobial Disk and Dilution Susceptibility Tests for Bacteria Isolated from Animals: Approved Standard. 2nd Edition, Wayne, Pa.). […] The bacterial suspension was then diluted 100-fold in cation-adjusted Mueller-Hinton broth to reach a final inoculum concentration of 10^6 CFU/ml. […] A negative control column was included in the plate that included 100 μl of broth alone. The plates were incubated for 18 h at 35° C. with ambient air circulation and without shaking. The wells were subsequently inspected for cloudiness and pellet formation using a magnifying glass plate reader. The lowest concentration at which no pellet or cloudiness was apparent in a given well was identified as the MIC. […] The plates were incubated overnight at 35° C. and colonies subsequently enumerated. The MBC values were determined as the lowest concentration at which ≧99.9% of inoculated bacteria were killed. All assays were performed in triplicate and the MIC and MBC range reported.

For the next assay, the system named is Pseudomonas aeruginosa. The assay is described as follows: microbe, parasite or virus in culture. In kind it is cell-based.
From the text: as §1

Another assay deals with Staphylococcus aureus. The experiment in a line: microbe, parasite or virus in culture. In kind it is cell-based.
From the text: as §1

The test system of a further assay is Enterobacter cloacae. The assay is described as follows: microbe, parasite or virus in culture. It counts as cell-based.
From the text: as §1

The test system of the next assay is Klebsiella pneumoniae. The experiment in a line: microbe, parasite or virus in culture. It counts as cell-based.
From the text: as §1

In a further assay the test system is Escherichia coli. The assay is described as follows: microbe, parasite or virus in culture. It counts as cell-based.
From the text: as §1

For the sequence “VRIHISGSSLGWLIQLFRKRIESLLQKS [bBPI142-169]”, the “inhibition of LPS activity” value in assay [1] (1 μg/ml) was “approximately 20%”. The MBC in the assay with Serratia marcescens was over 512 µg/mL; in the assay on Pseudomonas aeruginosa, over 256 µg/mL; in the assay with Staphylococcus aureus, 128 to 256 µg/mL; in the assay with Enterobacter cloacae, over 256 µg/mL. For the same sequence, the MIC in the assay with Serratia marcescens is over 512 µg/mL; with Pseudomonas aeruginosa, over 256 µg/mL; in the assay on Staphylococcus aureus, 128 to 256 µg/mL; with Enterobacter cloacae, over 256 µg/mL.
In the case of “KWKARKNFIKGSSLGWLIQLFRKR [bBPI90-99,148-161]”, the “inhibition of LPS activity” value is on record as “no inhibition” in assay [1] (1 μg/ml) and 74% in assay [1] (30 μg/ml). Also, the “MIC and MBC values” in the assay with Klebsiella pneumoniae is at most 64 µg/mL; against Pseudomonas aeruginosa it was at most 128 µg/mL; in the assay on Escherichia coli, at most 64 µg/mL; in the assay on Enterobacter cloacae, at most 64 µg/mL. The MBC against Serratia marcescens is over 512 µg/mL; against Staphylococcus aureus, 64 to 128 µg/mL. In addition, the MIC in the assay on Serratia marcescens was over 512 µg/mL; with Staphylococcus aureus, 64 µg/mL.
In the case of “NSQIRPLPDKGLDLSIRDASIKIRGKWKARKNFIK [bBPI65-99]”, the “inhibition of LPS activity” value in assay [1] (1 μg/ml) was “approximately 20%”. Besides, the “maximal inhibition of LPS activity” value in assay [1] (within the dose-response range tested) worked out at 50%. Moreover, the MBC is over 256 µg/mL in the assay with Klebsiella pneumoniae; over 512 µg/mL with Serratia marcescens; over 256 µg/mL against Pseudomonas aeruginosa; over 256 µg/mL in the assay with Escherichia coli; over 256 µg/mL in the assay with Staphylococcus aureus; over 256 µg/mL in the assay on Enterobacter cloacae. In addition, the MIC is over 256 µg/mL in the assay on Klebsiella pneumoniae; over 512 µg/mL against Serratia marcescens; over 256 µg/mL against Pseudomonas aeruginosa; over 256 µg/mL against Escherichia coli; over 256 µg/mL in the assay with Staphylococcus aureus; over 256 µg/mL with Enterobacter cloacae.
